This note sets out measurements from the supplement of paper PMC11208160.

The nature of the series: recombinant barcode read abundance after kanamycin selection (control-corrected) (log10(CPM+1)); higher = more efficient recombination; sequences stand for … in AGTGCAGAGAAAATCGGCCAGTTTTCTCTGCCTGCAGTCCGCATGCCGT…ATTTATGCAGCGGACTGCCTTTCTCCCAAAGTGATAAACCGGACAGTATCATGGACCGGTTTTCCCGGTAATCCGTATTTGCAAGGTTGGTTTCACT; site = the 11-nt target. The procedure: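 Same pooled E. coli target screen (IS621 bridge recombinase, kanamycin selection, control-corrected CPM, mean of 2 biological replicates). Here the two core-binding nucleotides of the LTG and RTG of the bridge RNA target-binding loop are mutated. Target and donor CT cores are held constant, and the other 9 guide positions match the target. The target is read from the library oligo sequence. Molecule = full bridge RNA written as DNA: nt 1-80 from the library oligo, rest WT scaffold.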

Turning to “AAACAGTCTTGGGTTCTAACCTGTTGCCTAG [AAACAGTCTAG_LTGcore_CT_RTGcore_CT] (site AAACAGTCTAG) (LTG core: CT, RTG core: CT)”, the “recombinant barcode read abundance (log10)” value amounted to 2.46.

As to “AAACAGTCTTGGGTTCTAACCTGTTGCCTGA [AAACAGTCTAG_LTGcore_CT_RTGcore_TC] (site AAACAGTCTAG) (LTG core: CT, RTG core: TC)”, the “recombinant barcode read abundance (log10)” value stood at 0.883.

Consider “AAACAGTCTTGGGTTCTAACCTGTTGCCTGG [AAACAGTCTAG_LTGcore_CT_RTGcore_CC] (site AAACAGTCTAG) (LTG core: CT, RTG core: CC)”, for which the “recombinant barcode read abundance (log10)” value was determined as 0.921.

In the case of “AAACAGTCTTGGGTTCTAACCTGTTGCCTTA [AAACAGTCTAG_LTGcore_CT_RTGcore_TA] (site AAACAGTCTAG) (LTG core: CT, RTG core: TA)”, the “recombinant barcode read abundance (log10)” value came out at 1.78.

As to “AAACAGTGCTGGGTTCTAACCTGTTGCCTAG [AAACAGTCTAG_LTGcore_GC_RTGcore_CT] (site AAACAGTCTAG) (LTG core: GC, RTG core: CT)”, the “recombinant barcode read abundance (log10)” value was found to be 0.16.

As to “AAACAGTTCTGGGTTCTAACCTGTTGCCTGA [AAACAGTCTAG_LTGcore_TC_RTGcore_TC] (site AAACAGTCTAG) (LTG core: TC, RTG core: TC)”, the “recombinant barcode read abundance (log10)” value stood at 0.262.

For “AAACATGAATGGGTTCTAACCTGTTGCCTTT [AAACATGCTAG_LTGcore_AA_RTGcore_AA] (site AAACATGCTAG) (LTG core: AA, RTG core: AA)”, the “recombinant barcode read abundance (log10)” value came to 0.133.

Turning to “AAACATGACTGGGTTCTAACCTGTTGCCTAG [AAACATGCTAG_LTGcore_AC_RTGcore_CT] (site AAACATGCTAG) (LTG core: AC, RTG core: CT)”, the “recombinant barcode read abundance (log10)” value amounted to 0.0862.

Consider “AAACATGATTGGGTTCTAACCTGTTGCCTAT [AAACATGCTAG_LTGcore_AT_RTGcore_AT] (site AAACATGCTAG) (LTG core: AT, RTG core: AT)”, for which the “recombinant barcode read abundance (log10)” value was found to be 0.0454.

“AAACATGCATGGGTTCTAACCTGTTGCCTAG [AAACATGCTAG_LTGcore_CA_RTGcore_CT] (site AAACATGCTAG) (LTG core: CA, RTG core: CT)”: the “recombinant barcode read abundance (log10)” value is 0.141.

With “AAACATGCATGGGTTCTAACCTGTTGCCTTG [AAACATGCTAG_LTGcore_CA_RTGcore_CA] (site AAACATGCTAG) (LTG core: CA, RTG core: CA)”, the “recombinant barcode read abundance (log10)” value came out at 0.0197.

Take “AAACATGCTTGGGTTCTAACCTGTTGCCTAG [AAACATGCTAG_LTGcore_CT_RTGcore_CT] (site AAACATGCTAG) (LTG core: CT, RTG core: CT)”: the “recombinant barcode read abundance (log10)” value turned out to be 1.43.

For the sequence “AAACATGCTTGGGTTCTAACCTGTTGCCTGA [AAACATGCTAG_LTGcore_CT_RTGcore_TC] (site AAACATGCTAG) (LTG core: CT, RTG core: TC)”, the “recombinant barcode read abundance (log10)” value was 1.4.

In the case of “AAACATGGCTGGGTTCTAACCTGTTGCCTAG [AAACATGCTAG_LTGcore_GC_RTGcore_CT] (site AAACATGCTAG) (LTG core: GC, RTG core: CT)”, the “recombinant barcode read abundance (log10)” value stood at 0.349.

Turning to “AAACATGGCTGGGTTCTAACCTGTTGCCTGC [AAACATGCTAG_LTGcore_GC_RTGcore_GC] (site AAACATGCTAG) (LTG core: GC, RTG core: GC)”, the “recombinant barcode read abundance (log10)” value came to 0.233.

As for “AAACATGTGTGGGTTCTAACCTGTTGCCTAG [AAACATGCTAG_LTGcore_TG_RTGcore_CT] (site AAACATGCTAG) (LTG core: TG, RTG core: CT)”, the “recombinant barcode read abundance (log10)” value came out at 0.0752.

As to “AAACATGTTTGGGTTCTAACCTGTTGCCTAA [AAACATGCTAG_LTGcore_TT_RTGcore_TT] (site AAACATGCTAG) (LTG core: TT, RTG core: TT)”, the “recombinant barcode read abundance (log10)” value is 0.632.

Turning to “ACGGGACAGTGGGTTCTAACCTGTTGCAGAG [ACGGGACCTCT_LTGcore_AG_RTGcore_CT] (site ACGGGACCTCT) (LTG core: AG, RTG core: CT)”, the “recombinant barcode read abundance (log10)” value amounted to 0.111.

In the case of “ACGGGACCATGGGTTCTAACCTGTTGCAGAG [ACGGGACCTCT_LTGcore_CA_RTGcore_CT] (site ACGGGACCTCT) (LTG core: CA, RTG core: CT)”, the “recombinant barcode read abundance (log10)” value was determined as 2.09.

Take “ACGGGACCATGGGTTCTAACCTGTTGCAGTG [ACGGGACCTCT_LTGcore_CA_RTGcore_CA] (site ACGGGACCTCT) (LTG core: CA, RTG core: CA)”: the “recombinant barcode read abundance (log10)” value is 0.127.

In the case of “ACGGGACCCTGGGTTCTAACCTGTTGCAGAG [ACGGGACCTCT_LTGcore_CC_RTGcore_CT] (site ACGGGACCTCT) (LTG core: CC, RTG core: CT)”, the “recombinant barcode read abundance (log10)” value was determined as 2.22.

On to “ACGGGACCTTGGGTTCTAACCTGTTGCAGTT [ACGGGACCTCT_LTGcore_CT_RTGcore_AA] (site ACGGGACCTCT) (LTG core: CT, RTG core: AA)”, for which the “recombinant barcode read abundance (log10)” value stood at 0.29.

As for “ACGGGACGCTGGGTTCTAACCTGTTGCAGGC [ACGGGACCTCT_LTGcore_GC_RTGcore_GC] (site ACGGGACCTCT) (LTG core: GC, RTG core: GC)”, the “recombinant barcode read abundance (log10)” value worked out at 0.151.

With “ACGGGACGTTGGGTTCTAACCTGTTGCAGAC [ACGGGACCTCT_LTGcore_GT_RTGcore_GT] (site ACGGGACCTCT) (LTG core: GT, RTG core: GT)”, the “recombinant barcode read abundance (log10)” value worked out at 0.0225.

Take “ACGGGACTCTGGGTTCTAACCTGTTGCAGAG [ACGGGACCTCT_LTGcore_TC_RTGcore_CT] (site ACGGGACCTCT) (LTG core: TC, RTG core: CT)”: the “recombinant barcode read abundance (log10)” value was 0.0751.

Turning to “AGGAGGTCTTGGGTTCTAACCTGTTGCCTTT [AGGAGGTCTAG_LTGcore_CT_RTGcore_AA] (site AGGAGGTCTAG) (LTG core: CT, RTG core: AA)”, the “recombinant barcode read abundance (log10)” value came out at 1.32.

In the case of “AGGAGGTGGTGGGTTCTAACCTGTTGCCTAG [AGGAGGTCTAG_LTGcore_GG_RTGcore_CT] (site AGGAGGTCTAG) (LTG core: GG, RTG core: CT)”, the “recombinant barcode read abundance (log10)” value was found to be 0.165.

For the sequence “AGGAGGTGTTGGGTTCTAACCTGTTGCCTAG [AGGAGGTCTAG_LTGcore_GT_RTGcore_CT] (site AGGAGGTCTAG) (LTG core: GT, RTG core: CT)”, the “recombinant barcode read abundance (log10)” value was 0.

As to “AGGCCTCAATGGGTTCTAACCTGTTGCCTAG [AGGCCTCCTAG_LTGcore_AA_RTGcore_CT] (site AGGCCTCCTAG) (LTG core: AA, RTG core: CT)”, the “recombinant barcode read abundance (log10)” value worked out at 0.0132.

“AGGCCTCCATGGGTTCTAACCTGTTGCCTTG [AGGCCTCCTAG_LTGcore_CA_RTGcore_CA] (site AGGCCTCCTAG) (LTG core: CA, RTG core: CA)”: the “recombinant barcode read abundance (log10)” value turned out to be 0.128.

In the case of “AGGCCTCCTTGGGTTCTAACCTGTTGCCTAT [AGGCCTCCTAG_LTGcore_CT_RTGcore_AT] (site AGGCCTCCTAG) (LTG core: CT, RTG core: AT)”, the “recombinant barcode read abundance (log10)” value worked out at 0.576.

“AGGCCTCCTTGGGTTCTAACCTGTTGCCTCT [AGGCCTCCTAG_LTGcore_CT_RTGcore_AG] (site AGGCCTCCTAG) (LTG core: CT, RTG core: AG)”: the “recombinant barcode read abundance (log10)” value stood at 0.369.

For “AGGCCTCCTTGGGTTCTAACCTGTTGCCTTC [AGGCCTCCTAG_LTGcore_CT_RTGcore_GA] (site AGGCCTCCTAG) (LTG core: CT, RTG core: GA)”, the “recombinant barcode read abundance (log10)” value came out at 0.109.

In the case of “AGGCCTCGCTGGGTTCTAACCTGTTGCCTGC [AGGCCTCCTAG_LTGcore_GC_RTGcore_GC] (site AGGCCTCCTAG) (LTG core: GC, RTG core: GC)”, the “recombinant barcode read abundance (log10)” value came out at 0.137.

Regarding “AGGCCTCTATGGGTTCTAACCTGTTGCCTAG [AGGCCTCCTAG_LTGcore_TA_RTGcore_CT] (site AGGCCTCCTAG) (LTG core: TA, RTG core: CT)”, the “recombinant barcode read abundance (log10)” value worked out at 0.0484.

“AGGCCTCTCTGGGTTCTAACCTGTTGCCTAG [AGGCCTCCTAG_LTGcore_TC_RTGcore_CT] (site AGGCCTCCTAG) (LTG core: TC, RTG core: CT)”: the “recombinant barcode read abundance (log10)” value amounted to 0.137.

Take “AGGCGGGACTGGGTTCTAACCTGTTGCGGAG [AGGCGGGCTCC_LTGcore_AC_RTGcore_CT] (site AGGCGGGCTCC) (LTG core: AC, RTG core: CT)”: the “recombinant barcode read abundance (log10)” value came out at 0.555.

Consider “AGGCGGGACTGGGTTCTAACCTGTTGCGGGT [AGGCGGGCTCC_LTGcore_AC_RTGcore_AC] (site AGGCGGGCTCC) (LTG core: AC, RTG core: AC)”, for which the “recombinant barcode read abundance (log10)” value stood at 0.011.

Take “AGGCGGGCCTGGGTTCTAACCTGTTGCGGGG [AGGCGGGCTCC_LTGcore_CC_RTGcore_CC] (site AGGCGGGCTCC) (LTG core: CC, RTG core: CC)”: the “recombinant barcode read abundance (log10)” value amounted to 0.126.

Regarding “AGGCGGGCTTGGGTTCTAACCTGTTGCGGAC [AGGCGGGCTCC_LTGcore_CT_RTGcore_GT] (site AGGCGGGCTCC) (LTG core: CT, RTG core: GT)”, the “recombinant barcode read abundance (log10)” value was 0.13.

For the sequence “AGGCGGGCTTGGGTTCTAACCTGTTGCGGAT [AGGCGGGCTCC_LTGcore_CT_RTGcore_AT] (site AGGCGGGCTCC) (LTG core: CT, RTG core: AT)”, the “recombinant barcode read abundance (log10)” value worked out at 0.513.
